Data on 4 compounds can be found in patent US9458203B2, “Integrin-blocking polypeptides and uses thereof” (priority 2011, dated 2016).

Where “and” joins values, the source holds several entries; their conditions need not be identical. Identical values can stand only once. Like-named read-outs stand apart in the source and are kept apart here.

For one data set, the system named is melanoma B16F10. Put plainly: transplanted melanoma B16F10 in C57BL/6 black mice. Particulars: 15 mg/kg/time once every other day, hypodermic, 14 days. The method, then: Hypodermically injecting polypeptides and other drugs into the left axillary region of mice from the experimental groups respectively while administering only equal quantity of physiological saline to the mice from the negative control group. The total medication period was 14 days, during which cyclophosphamide was administered once every other day, taxol once every three days, low-dose polypeptide twice a day and all other drugs once a day.

Data set [1] concerns human cervical cancer HeLa. In kind it is in vivo, nude mice.
Description: (§2) Taking a certain amount of vigorously growing tumor tissue, grinding the tumor tissue under sterile conditions and preparing cell suspension at the concentration of 1×10^7 cells/ml; then hypodermicaly inoculating 0.1 ml of the cell suspension into the right axillary region of nude mice. Keeping measuring the diameter of the transplanted tumor with a vernier caliper, and randomly dividing the mice into groups when the volume of the tumor reached 100-200 mm^3. […] Measuring the tumor diameter once every other day and recording the body weight of mice simultaneously. Intravenously injecting polypeptides to mice from test groups while administering equal quantity of physiological saline to mice from the negative control group. The total medication period was 14 days. Avastin was adopted to set up a positive control group; it was administered through the tail vein once every three days while all other drugs were administered through the tail vein once a day. Leaving mice for a one-week rest after 14 days' medication, then (21 days after medication) killing the mice, surgically dissecting the tumors and measuring the weight of tumors. The tumor volume (TV) was calculated in accordance with the following formula: TV=½×a×b^2
Data set [2] has as its system human prostate cancer DU-145. The format is in vivo, nude mice.
The subject of a further data set is human colon cancer HT-29. The format is in vivo, nude mice.
In data set [3] the test system is human thyroid cancer SW-579. In kind it is in vivo, nude mice.
Description: as §2
A further data set concerns human renal cancer A498. The format is in vivo, nude mice.
Data set [4] relates to human ovarian cancer SK-OV-3. In kind it is in vivo, nude mice.
Description: as §2
Data set [5] concerns human esophageal cancer Ec109. In kind it is in vivo, nude mice. An excerpt: (§1) The total medication period was 14 days.
In data set [6] the test system is human bladder cancer HT1376. Put plainly: heterotransplanted human bladder cancer HT1376 in nude mice. The format is in vivo.
Source text: as §1

In data set [7] the test system is human pancreatic cancer SW-1990. Briefly: heterotransplanted human pancreatic cancer SW-1990 in nude mice. In kind it is in vivo.
Source text: as §1

For data set [8], the system named is human laryngeal cancer Hep-2. Put plainly: heterotransplanted human laryngeal cancer Hep-2 in nude mice. In kind it is in vivo.
Source text: as §1

Data set [9] has as its system human breast cancer MDA-MB-231. Particulars: mouse, in vivo.
Description: (§3) Taking a certain amount of vigorously growing tumor tissue, grinding the tumor tissue under sterile conditions and preparing cell suspension at the concentration of 1×10^7 cells/ml; then hypodermicaly inoculating 0.1 ml of the cell suspension into the right axillary region of nude mice. Keeping measuring the diameter of the transplanted tumor with a vernier caliper, and randomly dividing the mice into groups when the volume of the tumor reached 100-200 mm^3. Observing the dynamic effect of integrin-blocking polypeptides on inhibiting the growth of the tumor by means of documenting the change of tumor diameters. Measuring the tumor diameter once every other day and recording the body weight of mice simultaneously. Intravenously injecting polypeptides to mice from test groups while administering equal quantity of physiological saline to mice from the negative control group. The total medication period was 14 days. Avastin was adopted to set up a positive control group; it was administered through the tail vein once every three days while all other drugs were administered through the tail vein once a day. Leaving mice for a one-week rest after 14 days' medication, then (21 days after medication) killing the mice, surgically dissecting the tumors and measuring the weight of tumors. The tumor volume (TV) was calculated in accordance with the following formula: TV=½×a×b^2
(§4) wherein a, b refer to the length and width of the tumor respectively.
(§5) The relative tumor volume (RTV) can be calculated in accordance with the results of measurement, using the formula: RTV=Vt/V0, wherein V0 refers to the initial tumor volume measured on the date starting medication (namely d0) while Vt the tumor volume obtained through every measurement. The anti-tumor activity was evaluated by relative proliferation rate T/C (%), which was calculated in accordance with the following formula:
(§6) wherein TRTV refers to the RTV of experimental groups; CRTV refers to the RTV of the negative control group.
Data set [10] concerns human gallbladder cancer GBC-SD. Particulars: mouse, in vivo.
Description: as §3
(§7) Avastin used in the positive control group was administered once every 2 days through tail vein injection, while drugs of all other groups were administered on daily basis through tail vein injection.
The subject of data set [11] is human breast cancer MDA-MB-231. Briefly: heterotransplanted human breast cancer MDA-MB-231 in nude mice. The note with it: 10 mg/kg/time, tail vein once every three days.
Description: as §3, §4, §5, §6
Data set [12] deals with human gallbladder cancer GBC-SD. Briefly: heterotransplanted human gallbladder cancer GBC-SD in nude mice.
Description: as §3, §7
Data set [13] is classed as in vivo, nude mice. The note with it: mouse, in vivo.
Source text: as §1

Data set [14] concerns human testicular cancer 5637. In kind it is in vivo, nude mice.
Source text: as §1

A further data set deals with sarcoma HT-1080. In kind it is in vivo, nude mice.
Source text: as §1

Setting [15] is: 10 mg/kg/time, tail vein once every 3 days.
Setting [16] is: 5 mg/kg/time (as printed in Table 29), once every 3 days, tail vein injection.
Setting [17] is: 10 mg/kg/time, once every 3 days, tail vein injection.
Setting [18] is: positive control, tail vein once every 3 days.
The mark [19] stands for this setting: cisplatin 10 mg/kg/time, once every 3 days, tail vein injection.
[20] abbreviates: avastin 10 mg/kg/time, once every 3 days, tail vein injection.
Setting [21] is: 10 mg/kg/time, once every 2 days, tail vein injection.
The mark [22] stands for this setting: 5-FU 10 mg/kg/time, once every 3 days, tail vein injection.

Description for human colon cancer HT-29: as §2
Description for human renal cancer A498: as §2

In the data set with melanoma B16F10, `O=P1(N(CCCl)CCCl)NCCCO1` (stereo not shown) [cyclophosphamide] had a final weight of 17.3 ± 1.5 g, a tumor inhibition rate of 64.95% and a tumor weight of 1.40 ± 0.06 g.

As for `N.N.[Cl][Pt][Cl]` [cisplatin, reference compound], the tumor inhibition rate in [1] (setting [15]) was 73.13%; in data set [2] (setting [16]), 73.84%; in data set [2] (setting [17]) it was 73.84%; in [2] (setting [15]), 73.84%; in the data set with human colon cancer HT-29 (setting [17]) it was 79.17%; in data set [3] (setting [17]), 74.09%. Further, the tumor inhibition rate in the data set on human renal cancer A498 (setting [17]) turned out to be 79.83%; in data set [4] (setting [19]), 78.36%. The tumor weight in data set [1] (setting [15]) stood at 0.38 ± 0.10 g; in data set [2] (setting [16]), 0.37 ± 0.10 g; in [2] (setting [17]), 0.37 ± 0.10 g; in [2] (setting [15]), 0.37 ± 0.10 g; with human colon cancer HT-29 (setting [17]) it was 0.30 ± 0.05 g; in data set [3] (setting [17]), 0.34 ± 0.07 g. Further, the figures for the tumor weight (in the data set on human renal cancer A498 (setting [17]); in [4] (setting [19])) were 0.25 ± 0.06 g and 0.29 ± 0.06 g, respectively. The “body weight of animals, in words” value in data set [1] (mouse, in vivo) is recorded as “greatly reduced the body weight”; in data set [2] (mouse, in vivo), “greatly reduced the body weight”; with human colon cancer HT-29 (mouse, in vivo), “greatly reduced the body weight”; in [3] (mouse, in vivo) it was “greatly reduced the body weight”; in the data set with human renal cancer A498 (mouse, in vivo), “greatly reduced the body weight”; in data set [4] (mouse, in vivo), “greatly reduced the body weight”. The “inhibition rate on tumor” value in the data set with human colon cancer HT-29 (setting [18]) came to 79.17%; in data set [3] (setting [18]), 74.09%; in the data set with human renal cancer A498 (setting [18]), 79.83%; in data set [4] (setting [18]), 78.36%.

Take “avastin: Avastin was adopted to set up a positive control group [reference compound]”: the tumor inhibition rate in data set [5] (setting [17]) was found to be 69.00%; in data set [6] (setting [17]), 79.60%; in [7] (setting [17]), 79.07%; in data set [8] (setting [20]), 76.79%; in data set [12] (setting [21]), 78.85%. In addition, the tumor weight is reported as 0.47 ± 0.10 g in data set [5] (setting [17]); 0.24 ± 0.06 g in data set [6] (setting [17]); 0.27 ± 0.07 g in data set [7] (setting [17]); 0.26 ± 0.06 g in data set [8] (setting [20]); 0.26 ± 0.08 g in [11]; 0.25 ± 0.06 g in data set [12] (setting [21]). The “body weight of animals, in words” value in data set [5] (mouse, in vivo) is listed as “no significant change”; in data set [6] (mouse, in vivo), “no significant change”; in data set [7] (mouse, in vivo), “no significant change”; in [8] (mouse, in vivo), “no significant change”; in data set [9], “no obvious change”; in data set [10] it was “no significant change”. The “inhibition rate on tumor” value worked out at 69.00% in [5] (setting [18]); 79.60% in data set [6] (setting [18]); 79.07% in [7] (setting [18]); 76.79% in data set [8] (setting [18]); 78.85% in data set [12] (positive control, tail vein once every 2 days).

Regarding `O=c1[nH]cc(F)c(=O)[nH]1` [5-FU, 5-fluorouracil, reference compound], the “body weight of animals, in words” value in data set [13] is on record as “greatly reduced the body weight”; with sarcoma HT-1080 (mouse, in vivo), “greatly reduced the body weight”. The figures for the tumor inhibition rate (in data set [14] (setting [17]); in the data set with sarcoma HT-1080 (setting [22])) were 77.80% and 78.10%, respectively. In addition, the figures for the tumor weight (in data set [14] (setting [17]); in the data set on sarcoma HT-1080 (setting [22])) were 0.28 ± 0.06 g and 0.30 ± 0.07 g, respectively. Besides, the “toxic and side effects, in words” value was “more apparent toxic and side effects” in [14] (mouse, in vivo); “more apparent toxic and side effects” in the data set on sarcoma HT-1080 (mouse, in vivo). The “inhibition rate on tumor” value in [14] (tail vein once every 3 days) is 77.80% and 73.84%; with sarcoma HT-1080 (setting [18]), 78.10%.
